≈ marks a conversion by molar mass, not a printed value.
Assays:
Staphylococcus aureus = assay: Antimicrobial activity against Staphylococcus aureus assessed as inhibition of growth incubated for 18 hrs by CLSI guidelines based assay; assay type: functional
Enterococcus faecalis = assay: Antimicrobial activity against Enterococcus faecalis assessed as inhibition of growth incubated for 18 hrs by CLSI guidelines based assay; assay type: functional
Escherichia coli = assay: Antimicrobial activity against Escherichia coli assessed as inhibition of growth incubated for 18 hrs by CLSI guidelines based assay; assay type: functional
[1] = test system: Stenotrophomonas maltophilia; assay: Antimicrobial activity against Stenotrophomonas maltophilia assessed as inhibition of growth incubated for 18 hrs by CLSI guidelines based assay; assay type: functional
[2] = Hemolytic activity in sheep red blood cells measured after 1 hr incubation; assay type: toxicity, cell-based, Ovis aries, Erythrocyte
[3] = Selectivity index, ratio of HC50 for sheep red blood cells to MIC for Staphylococcus aureus; assay type: toxicity, cell-based, RBC; conditions: read-out: Selectivity Index
[4] = Cytotoxicity against human Gastric mucosal cells measured after 24 hrs by CCK-8 assay; assay type: toxicity, cell-based, Gastric mucosal cell

SMILES	MIC (Staphylococcus aureus) [µg/mL]	MIC (Enterococcus faecalis) [µg/mL]	MIC (Escherichia coli) [µg/mL]	MIC [1] [µg/mL]	HC50 at 1 h [2] [µg/mL]	selectivity ratio [3]	CC50 at 24 h [4] [µg/mL]
CCCC[N+](C)(C)CCCCOc1cc(OCCCC[N+](C)(C)CCCC)cc(OCCCC[N+](C)(C)CCCC)c1.[Br-].[Br-].[Br-]	128	128	128	128	> 1280	> 10	
CCCCCCCCCC[N+](C)(C)CCCCOc1cc(OCCCC[N+](C)(C)CCCCCCCCCC)cc(OCCCC[N+](C)(C)CCCCCCCCCC)c1.[Br-].[Br-].[Br-]	4	0.5	4	4	34	8.5	
CCCCCCCCCC[N+](C)(C)CCCCCOc1cc(OCCCCC[N+](C)(C)CCCCCCCCCC)cc(OCCCCC[N+](C)(C)CCCCCCCCCC)c1.[Br-].[Br-].[Br-]	4	2	4	4	16	4	
C=C[C@]1(C)C[C@@H](OC(=O)CSC(C)(C)CNC(=O)[C@H](N)C(C)C)[C@]2(C)[C@H](C)CC[C@]3(CCC(=O)[C@H]32)[C@@H](C)[C@@H]1O [VALNEMULIN]							45.7 (≈ 80.9 µM)
C[N+](C)(CCCCOc1ccccc1)CCCOc1cc(OCCC[N+](C)(C)CCCCOc2ccccc2)cc(OCCC[N+](C)(C)CCCCOc2ccccc2)c1.[Br-].[Br-].[Br-]	32	64	128	128	> 1280	> 40	
CCCC[N+](C)(C)CCCCCOc1cc(OCCCCC[N+](C)(C)CCCC)cc(OCCCCC[N+](C)(C)CCCC)c1.[Br-].[Br-].[Br-]	64	128	32	128	> 1280	> 20	
C[N+](C)(CCCCOc1cc(OCCCC[N+](C)(C)CCCCc2ccccc2)cc(OCCCC[N+](C)(C)CCCCc2ccccc2)c1)CCCCc1ccccc1.[Br-].[Br-].[Br-]	2	4	64	32	> 1280	> 640	
CCCCCCCCCCCC[N+](C)(C)CCCCOc1cc(OCCCC[N+](C)(C)CCCCCCCCCCCC)cc(OCCCC[N+](C)(C)CCCCCCCCCCCC)c1.[Br-].[Br-].[Br-]	8	4	8	32	11	1.38	
CCCCCCCCCCCC[N+](C)(C)CCCCCOc1cc(OCCCCC[N+](C)(C)CCCCCCCCCCCC)cc(OCCCCC[N+](C)(C)CCCCCCCCCCCC)c1.[Br-].[Br-].[Br-]	16	2	64	64	12	0.75	
C[N+](C)(CCCCc1ccccc1)CCCOc1cc(OCCC[N+](C)(C)CCCCc2ccccc2)cc(OCCC[N+](C)(C)CCCCc2ccccc2)c1.[Br-].[Br-].[Br-]	8	16	128	128	> 1280	> 160	
C[N+](C)(CCCCOc1cc(OCCCC[N+](C)(C)CCCc2ccccc2)cc(OCCCC[N+](C)(C)CCCc2ccccc2)c1)CCCc1ccccc1.[Br-].[Br-].[Br-]	8	16	> 128	> 128	> 1280	> 160	
C[C@@H](O)[C@H]1C(=O)N2C(C(=O)O)=C(S[C@@H]3CN[C@H](C(=O)N(C)C)C3)[C@H](C)[C@H]12 [MEROPENEM]	0.5 (≈ 1.3 µM)	2 (≈ 5.22 µM)	1 (≈ 2.61 µM)	1 (≈ 2.61 µM)	1220	2440	
CCCCCCCCCCCC[N+](C)(C)CCCOc1cc(OCCC[N+](C)(C)CCCCCCCCCCCC)cc(OCCC[N+](C)(C)CCCCCCCCCCCC)c1.[Br-].[Br-].[Br-]	8	4	32	32	10	1.25	
C[N+](C)(CCCOc1cc(OCCC[N+](C)(C)CCCc2ccccc2)cc(OCCC[N+](C)(C)CCCc2ccccc2)c1)CCCc1ccccc1.[Br-].[Br-].[Br-]	32	32	> 128	> 128	> 1280	> 40	
CCCCCC[N+](C)(C)CCCCOc1cc(OCCCC[N+](C)(C)CCCCCC)cc(OCCCC[N+](C)(C)CCCCCC)c1.[Br-].[Br-].[Br-]	32	8	128	128	> 1280	> 40	
C[N+](C)(CCCCCOc1ccccc1)CCCOc1cc(OCCC[N+](C)(C)CCCCCOc2ccccc2)cc(OCCC[N+](C)(C)CCCCCOc2ccccc2)c1.[Br-].[Br-].[Br-]	4	8	32	32	> 1280	> 320	
CS(=O)(=O)c1ccc([C@@H](O)[C@@H](CF)NC(=O)C(Cl)Cl)cc1 [FLORFENICOL]							121 (≈ 339 µM)
C[N+](C)(CCCOc1ccccc1)CCCOc1cc(OCCC[N+](C)(C)CCCOc2ccccc2)cc(OCCC[N+](C)(C)CCCOc2ccccc2)c1.[Br-].[Br-].[Br-]	32	64	> 128	> 128	> 1280	> 40	
C[N+](C)(CCCCOc1cc(OCCCC[N+](C)(C)CCCOc2ccccc2)cc(OCCCC[N+](C)(C)CCCOc2ccccc2)c1)CCCOc1ccccc1.[Br-].[Br-].[Br-]	4	2	> 128	64	> 1280	> 320	
CCCCCCCCCCCC[N+](C)(C)CCOc1ccccc1 [DOMIPHEN]							74.5

More lines, in order of falling MIC (Staphylococcus aureus), values ahead:

MIC (Staphylococcus aureus) [µg/mL]	MIC (Enterococcus faecalis) [µg/mL]	MIC (Escherichia coli) [µg/mL]	MIC [1] [µg/mL]	SMILES	HC50 at 1 h [2] [µg/mL]	selectivity ratio [3]	CC50 at 24 h [4] [µg/mL]
2	1	4	4	CCCCCCCC[N+](C)(C)CCCOc1cc(OCCC[N+](C)(C)CCCCCCCC)cc(OCCC[N+](C)(C)CCCCCCCC)c1.[Br-].[Br-].[Br-]	> 1280	> 640	< 30
2	4	64	32	C[N+](C)(CCCCOc1ccccc1)CCCCOc1cc(OCCCC[N+](C)(C)CCCCOc2ccccc2)cc(OCCCC[N+](C)(C)CCCCOc2ccccc2)c1.[Br-].[Br-].[Br-]	> 1280	> 640	
1	1	8	16	C[N+](C)(CCCCCOc1cc(OCCCCC[N+](C)(C)CCCc2ccccc2)cc(OCCCCC[N+](C)(C)CCCc2ccccc2)c1)CCCc1ccccc1.[Br-].[Br-].[Br-]	> 1280	> 1280	
1	1	2	2	C[N+](C)(CCCCCOc1cc(OCCCCC[N+](C)(C)CCCOc2ccccc2)cc(OCCCCC[N+](C)(C)CCCOc2ccccc2)c1)CCCOc1ccccc1.[Br-].[Br-].[Br-]	> 1280	> 1280	< 30
1	2	1	2	C[N+](C)(CCCCCOc1ccccc1)CCCCCOc1cc(OCCCCC[N+](C)(C)CCCCCOc2ccccc2)cc(OCCCCC[N+](C)(C)CCCCCOc2ccccc2)c1.[Br-].[Br-].[Br-]	> 1280	> 1280	< 30
1	2	16	16	C[N+](C)(CCCCCOc1ccccc1)CCCCOc1cc(OCCCC[N+](C)(C)CCCCCOc2ccccc2)cc(OCCCC[N+](C)(C)CCCCCOc2ccccc2)c1.[Br-].[Br-].[Br-]	> 1280	> 1280	
1	1	2	1	CCCCCCCC[N+](C)(C)CCCCOc1cccc(OCCCC[N+](C)(C)CCCCCCCC)c1OCCCC[N+](C)(C)CCCCCCCC.[Br-].[Br-].[Br-]	847	847	
1	1	4	4	CCCCCCCCCC[N+](C)(C)CCCOc1cc(OCCC[N+](C)(C)CCCCCCCCCC)cc(OCCC[N+](C)(C)CCCCCCCCCC)c1.[Br-].[Br-].[Br-]	54	54	
1	2	2	4	C[N+](C)(CCCCCOc1cc(OCCCCC[N+](C)(C)CCCCOc2ccccc2)cc(OCCCCC[N+](C)(C)CCCCOc2ccccc2)c1)CCCCOc1ccccc1.[Br-].[Br-].[Br-]	> 1280	> 1280	< 30
1	2	8	4	CCCCCC[N+](C)(C)CCCCCOc1cc(OCCCCC[N+](C)(C)CCCCCC)cc(OCCCCC[N+](C)(C)CCCCCC)c1.[Br-].[Br-].[Br-]	> 1280	> 1280	< 30
0.5	2	4	2	CCCCCCCC[N+](C)(C)CCCCCOc1cc(OCCCCC[N+](C)(C)CCCCCCCC)cc(OCCCCC[N+](C)(C)CCCCCCCC)c1.[Br-].[Br-].[Br-]	711	1420	< 30
0.5	0.5	2	1	CCCCCCCC[N+](C)(C)CCCCOc1ccc(OCCCC[N+](C)(C)CCCCCCCC)c(OCCCC[N+](C)(C)CCCCCCCC)c1.[Br-].[Br-].[Br-]	> 1280	> 2560	
